Assay results taken from patent US20210087593A1, “N-[…] ALKALOID COMPOUNDS” (Willow BioSciences Inc., priority 2017, published 2021).

Assays:
EsNMT = test: N-alkylation substrate screen using EsNMT (LC-MS); assay type: biochemical, Ephedra sinica; design: key to N-alkylation of substrate alkaloid compounds, Enzyme EsNMT: −=no detectable quantities of product N-alkylated compound; Trace, +, ++, +++=increasing relative levels of product N-alkylated compound; Trace, +, ++, +++=increasing relative levels of product N-alkylated compound; Trace, +, ++, +++=increasing relative levels of product N-alkylated compound; Trace, +, ++, +++=increasing relative levels of product N-alkylated compound; settings: for N-alkylation of substrate alkaloid compounds, Enzyme EsNMT: 25 μg protein, 1 mM substrate, 1 mM SAM, 60 mM HEPES pH 8, 16 hours at 37° C., relative level of N-alkylated product by LC-MS; for N-alkylated alkaloid product detected after incubation with EsNMT (SEQ. ID NO: 2): incubated in accordance with Example 1, LC-MS
Procedure: The EsNMT coding sequence was amplified from Ephedra sinica cDNA using gene-specific primers containing restriction sites with Q5 HiFi DNA polymerase (NEB). Restriction digests and ligations (NEB) were carried out to generate a pQE plasmid (Qiagen) for heterologous expression of HIS6-tagged recombinant EsNMT. Protein overexpression was carried out at 18° C. in Escherichia coli SG13009 (Qiagen) grown in lysogeny broth (LB) to which 0.5 mM isopropyl β-D-1-thiogalactopyranoside (IPTG) was added.
(§1) Total soluble protein was extracted from each culture and the recombinant NMTs were purified using TALON cobalt affinity resin (Clontech) followed by desalting and concentration with Amicon Ultra-30 centrifugal filters (EMD Millipore). Protein concentration was determined using the Bradford method, and purity was assessed by SDS-PAGE followed by Coomassie staining.
(§2) Forty-four nitrogenous molecules were screened as potential substrates for EsNMT using a standardized assay (25 μg protein, 1 mM substrate, 1 mM SAM, 60 mM HEPES pH 8, 16 hours at 37° C.). In addition, a representative subset was screened as potential substrates for GfCNMT, GfTNMT and PsRNMT under identical conditions. For each substrate and enzyme combination, negative control assays were carried out using protein heated to 100° C. (boiled) for 20 minutes. Assays were quenched with 9 volumes of methanol, centrifuged to pellet insoluble debris and the supernatants were stored at −20° C. prior to analysis.
(§3) Assay supernatants were analyzed by liquid chromatography-mass spectrometry (LC-MS). LC-MS analysis was performed using a 1200 HPLC coupled with a 6410 triple-quadrupole MS (Agilent). Samples (2 μl) were injected onto a Luna […] Phenyl-Hexyl 100 Å HPLC column and analytes were eluted in a gradient of solvent A (0.1% Formic acid, 5% v/v methanol in water) and solvent B (0.1% Formic acid in methanol) at a flow rate of 300 μl per minute. The gradient began at 0% B, reached 35% B by 12 minutes, then increased to 85% B at 14 min and remained at that level until 18 minutes. Subsequently, the mixture returned to 0% B over a period of 3 minutes before a final 6 minute re-equilibration period. Analytes were applied to the mass analyzer using an electrospray ionization probe operating in positive mode with the following condition: capillary voltage, 4000V; fragmentor voltage, 100V, source temperature, 350° C.; nebulizer pressure, 50 PSI; gas flow 10 L/min. Ions were detected in full scan mode where quadrupoles 1 and 2 were set to RF only, whereas the third quadrupole scanned from 100-500 m/z over 525 milliseconds. Substrate acceptance by the enzymes was determined according to the formation of a peak with a 14-m/z increase in mass, corresponding to methylated substrate and a decrease in the substrate peak area, relative to the appropriate boiled control assay.
(§4) Each of the alkaloid substrates shown in Table 1 were incubated with the following N-alkyltransferases: GfCNMT (SEQ. ID NO: 3), gfTNMT (SEQ. ID NO: 4) and Ps RNMT ([…]) and EsNMT (SEQ. ID NO: 2), as described in Example 1. The presence of N-alkylated alkaloid product was detected as described in Examples 1-20. Legend: ND=Not Determined; −=no detectable quantities of product N-alkylated compound; and Trace, +, ++, +++=increasing relative levels of product N-alkylated compound.

GfCNMT = test: N-alkylation substrate screen using GfCNMT (LC-MS); assay type: biochemical, Glaucium flavum; design: key: −=no detectable quantities of product N-alkylated compound; Trace, +, ++, +++=increasing relative levels of product N-alkylated compound; Trace, +, ++, +++=increasing relative levels of product N-alkylated compound; Trace, +, ++, +++=increasing relative levels of product N-alkylated compound; Trace, +, ++, +++=increasing relative levels of product N-alkylated compound; settings: 25 μg protein, 1 mM substrate, 1 mM SAM, 60 mM HEPES pH 8, 16 hours at 37° C.; relative level of N-alkylated product by LC-MS
Procedure: (§5) The GfCNMT, GfTNMT and PsRNMT coding sequences were amplified from Glaucium flavum (GfCNMT and GfTNMT) or Papaver somniferum (PsRNMT) cDNA using gene-specific primers containing attB recombination sites with Q5 HiFi DNA polymerase (NEB). Recombination reactions were carried out using BP and LR Clonase II (Thermo Scientific) to generate individual pDONR221 entry plasmids and, subsequently, individual pHGWA plasmids for heterologous expression of polyhistidine (HIS6)-tagged recombinant GfCNMT, GfTNMT and PsRNMT. Protein overexpression was carried out at 18° C. using E. coli ArcticExpress (Agilent) grown in Studier's autoinduction media.
as §1, §2, §3, §4

GfTNMT = test: N-alkylation substrate screen using GfTNMT (LC-MS); assay type: biochemical, Glaucium flavum; design: key: −=no detectable quantities of product N-alkylated compound; Trace, +, ++, +++=increasing relative levels of product N-alkylated compound; Trace, +, ++, +++=increasing relative levels of product N-alkylated compound; Trace, +, ++, +++=increasing relative levels of product N-alkylated compound; Trace, +, ++, +++=increasing relative levels of product N-alkylated compound; settings: 25 μg protein, 1 mM substrate, 1 mM SAM, 60 mM HEPES pH 8, 16 hours at 37° C.; relative level of N-alkylated product by LC-MS
Procedure: as §5, §1, §2, §3, §4

PsRNMT = test: N-alkylation substrate screen using PsRNMT (LC-MS); assay type: biochemical, Papaver somniferum; design: key: −=no detectable quantities of product N-alkylated compound; Trace, +, ++, +++=increasing relative levels of product N-alkylated compound; Trace, +, ++, +++=increasing relative levels of product N-alkylated compound; Trace, +, ++, +++=increasing relative levels of product N-alkylated compound; Trace, +, ++, +++=increasing relative levels of product N-alkylated compound; settings: 25 μg protein, 1 mM substrate, 1 mM SAM, 60 mM HEPES pH 8, 16 hours at 37° C.; relative level of N-alkylated product by LC-MS
Procedure: as §5, §1, §2, §3, §4

Compound | N-alkylation of substrate alkaloid compounds, Enzyme EsNMT (EsNMT) | N-alkylated alkaloid product detected after incubation with EsNMT (SEQ. ID NO: 2) (EsNMT) | N-alkylation of substrate alkaloid compounds, Enzyme GfCNMT (GfCNMT) | N-alkylation of substrate alkaloid compounds, Enzyme GfTNMT (GfTNMT) | N-alkylation of substrate alkaloid compounds, Enzyme PsRNMT (PsRNMT)
NCc1ccccc1 [Benzylamine, benzylamine] | − | No N-alkylated alkaloid product compounds were detected |  |  | 
NCCc1c[nH]c2ccccc12 [Tryptamine, tryptamine] | +++ |  | Trace | Trace | Trace
CNCC(O)c1ccc(O)cc1 (centres unmarked) [Synephrine, synephrine] | + |  |  |  | 
NCCc1ccc(O)cc1 [Tyramine, tyramine] | + |  | + | − | −
NCCc1c[nH]cn1 [Histamine, histamine] | − | No N-alkylated alkaloid product compounds were detected | − | − | −
Cn1cnc2c1c(=O)[nH]c(=O)n2C [Theobromine, theobromine] | − | No N-alkylated alkaloid product compounds were detected |  |  | 
NCCS(=O)(=O)O [Taurine, taurine] | − | No N-alkylated alkaloid product compounds were detected |  |  | 
Oc1ccc(CC2NCCc3cc(O)c(O)cc32)cc1O (centres unmarked) [Norlaudanosoline, norlaudanosoline] | − | No N-alkylated alkaloid product compounds were detected |  |  | 
CC(N)c1ccccc1 (centres unmarked) [1-Phenylethaneamine, 1-phenylethan-1-amine] | − | No N-alkylated alkaloid product compounds were detected |  |  | 
CC1NCCc2cc(O)c(O)cc21 (centres unmarked) [THQ1, 1-methyl-6,7-dihydroxy-1,2,3,4-tetrahydroisoquinoline] | + |  |  |  | 
C[C@H](N)C(=O)c1ccccc1 [Cathinone, cathinone] | + |  |  |  | 
NCC(O)c1ccc(O)cc1 (centres unmarked) [Octopamine, octopamine] | − | No N-alkylated alkaloid product compounds were detected |  |  | 
N[C@@H](Cc1ccc(O)cc1)C(=O)O [Tyrosine, tyrosine] | − | No N-alkylated alkaloid product compounds were detected |  |  | 
N[C@@H](Cc1ccccc1)C(=O)O [Phenylalanine, phenylalanine] | − | No N-alkylated alkaloid product compounds were detected |  |  | 
CN[C@@H](C)[C@@H](O)c1ccccc1 [Pseudoephedrine, pseudoephedrine, reference compound] | + |  |  |  | 
Nc1ncnc2nc[nH]c12 [Adenine, adenine] | − | No N-alkylated alkaloid product compounds were detected |  |  | 
CC(C)(N)Cc1ccccc1 [Phentermine, phentermine, reference compound] | + |  |  |  | 
CNC(C)C(=O)c1ccccc1 (centres unmarked) [N-Methyl-cathinone, N-methyl-cathinone] | + |  |  |  | 
CC[C@@H]1CN2CCc3c([nH]c4cccc(OC)c34)[C@@H]2C[C@@H]1/C(=C\OC)C(=O)OC [Mitragynine, mitragynine] | − | No N-alkylated alkaloid product compounds were detected |  |  | 
C[C@H](N)[C@@H](O)c1ccccc1 [Norpseudoephedrine, norpseudoephedrine] | + |  |  |  | 
methylephedrine | + |  |  |  | 
O=c1[nH]c(=O)c2ncn([C@@H]3O[C@H](CO)[C@@H](O)[C@H]3O)c2[nH]1 [Xanthosine, xanthosine] | − | No N-alkylated alkaloid product compounds were detected |  |  | 
CN1[C@@H]2CC[C@H]1CC(=O)C2 [Tropinone, tropinone] | − | No N-alkylated alkaloid product compounds were detected |  |  | 
CN(C)c1ccc(C=O)cc1 [p-dimethylaminobenzaldehyde] | − | No N-alkylated alkaloid product compounds were detected |  |  | 
NCCc1ccc(O)c(O)c1 [Dopamine, dopamine] | − | No N-alkylated alkaloid product compounds were detected |  |  | 
N[C@@H](Cc1c[nH]c2ccccc12)C(=O)O [Tryptophan, tryptophan] | − | No N-alkylated alkaloid product compounds were detected |  |  | 
N[C@@H](Cc1ccc(O)c(O)c1)C(=O)O [3,4-dihydroxyphenylalanine] | − | No N-alkylated alkaloid product compounds were detected |  |  | 
CN[C@@H](C)[C@H](O)c1ccccc1 [Ephedrine, ephedrine, reference compound] | + |  | − |  | −
Nc1ccccc1C(=O)O [Anthrallic acid, anthranilic acid] | − | No N-alkylated alkaloid product compounds were detected |  |  | 
COc1ccc(Cc2nccc3cc(OC)c(OC)cc23)cc1OC [Papaverine, papaverine, reference compound] | Trace |  |  |  | 
